Measured values as given in US20240199535A1, “DEUTERATED DHODH INHIBITORS” (priority 2021, published 2024).

Tests used:
[1] = in vivo; details: Han Wistar, rat
Experimental: Rats are provided with a catheter in the jugular vein (2-3 days prior to blood sampling). At each designated time point (0, 1, 2, 4, 8 and 24 h after dosing), 100 μL blood were collected into Li-heparin tubes, stored on ice until centrifugation (10 minutes at 3000 g, 4° C.) and plasma was prepared within 45 min after collection, frozen at −20° C. and stored at this temperature until processed for LC-MS analysis.

[2] = in vitro; details: male, rat, microsomes
[3] = in vivo; details: CC7BL/6J, mouse, po, 5 mg/kg
Experimental: The pharmacokinetics of the compounds of the present invention was evaluated in 3 male and 3 female mice (CC7BL/6J, 8 week old) after oral cassette dosing. Dose was 5 mg/kg, application volume was 5 mL/kg and vehicle was 5% Solutol, 95% NaCl solution (at 0.9% saline concentration). At each designated time point (0, 0.25, 0.5, 1, 2, 4, 8 h after dosing), 20 μL whole blood were collected from the tail vein into Li-heparin tubes, frozen on dry ice within 1-2 minutes of sampling and stored at −20° C. until processed for LC-MS analysis.

[4] = in vitro; details: human, microsomes
[5] = test system: SARS-CoV-2 d6-YFP; assay: Combinatorial drug assessment with EIDD-1931, viral replication inhibition assay; format: cell-based
[6] = test system: SARS-CoV-2; assay: Antiviral activity on SARS-CoV-2, viral replication (YFP) assay; format: cell-based; details: Severe acute respiratory syndrome coronavirus 2, read-out: EC50 range

Question: What does the source list for COc1cccc(-c2ccc(NC(=O)C3=C(C(=O)O)CCC3)c(F)c2)c1 [Example C26, vidofludimus, reference compound]?
Answer: % AUCextra ([1]; female, iv, 1 mg/kg): 12%; AUC(0-inf) ([1]; female, iv, 1 mg/kg): 82900 ng·h/mL; AUC(0-t) ([1]; female, iv, 1 mg/kg): 68600 ng·h/mL; C0 ([1]; female, iv, 1 mg/kg): 8130 ng/mL; Cz ([1]; female, iv, 1 mg/kg): 939 ng/mL; Vz/f ([1]; female, iv, 1 mg/kg): 0.016 L/kg; t1/2z ([1]; female, iv, 1 mg/kg): 9.7 h; tz ([1]; female, iv, 1 mg/kg): 24 h; bioavailability ([1]; female, po): 73.8%; % AUCextra ([1]; female, po, 5 mg/kg): 17%; AUC(0-inf) ([1]; female, po, 5 mg/kg): 297000 ng·h/mL; AUC(0-t) ([1]; female, po, 5 mg/kg): 253000 ng·h/mL; CL/F ([1]; female, po, 5 mg/kg): 3.7 mL/min/kg; Cmax ([1]; female, po, 5 mg/kg): 21300 ng/mL; Cz ([1]; female, po, 5 mg/kg): 3620 ng/mL; Tmax ([1]; female, po, 5 mg/kg): 2 h; Vd/F ([1]; female, po, 5 mg/kg): 0.016 L/kg; t1/2z ([1]; female, po, 5 mg/kg): 9.1 h; tz ([1]; female, po, 5 mg/kg): 24 h; % AUCextra ([1]; male, iv, 1 mg/kg): 22%; AUC(0-inf) ([1]; male, iv, 1 mg/kg): 47900 ng·h/mL; AUC(0-t) ([1]; male, iv, 1 mg/kg): 43200 ng·h/mL; C0 ([1]; male, iv, 1 mg/kg): 5790 ng/mL; Cz ([1]; male, iv, 1 mg/kg): 421 ng/mL; Vz/f ([1]; male, iv, 1 mg/kg): 0.009 L/kg; t1/2z ([1]; male, iv, 1 mg/kg): 7.3 h; tz ([1]; male, iv, 1 mg/kg): 24 h; bioavailability ([1]; male, po): 92.7%; % AUCextra ([1]; male, po, 5 mg/kg): 25%; AUC(0-inf) ([1]; male, po, 5 mg/kg): 206000 ng·h/mL; AUC(0-t) ([1]; male, po, 5 mg/kg): 200000 ng·h/mL; CL/F ([1]; male, po, 5 mg/kg): 3.72 mL/min/kg; Cmax ([1]; male, po, 5 mg/kg): 14900 ng/mL; Cz ([1]; male, po, 5 mg/kg): 1540 ng/mL; Tmax ([1]; male, po, 5 mg/kg): 2 h; Vd/F ([1]; male, po, 5 mg/kg): 0.007 L/kg; t1/2z ([1]; male, po, 5 mg/kg): 6.4 h; tz ([1]; male, po, 5 mg/kg): 24 h; microsomal CLint [2]: 8.48 µL/min/mg; AUC ([3]; female): 1970 ng·h/mL; Cmax ([3]; female): 745 ng/mL; half-life ([3]; female): 1.7 h; AUC ([3]; male): 1620 ng·h/mL; Cmax ([3]; male): 789 ng/mL; half-life ([3]; male): 1.7 h; microsomal CLint ([4]; both): 2.27 µL/min/mg; microsomal CLint ([4]; female): 6.58 µL/min/mg; microsomal CLint ([4]; male): 12.6 µL/min/mg

Question: What does the source list for [2H]C([2H])([2H])Oc1cccc(-c2cc(F)c(NC(=O)C3=C(C(=O)O)CCC3)c(F)c2)c1 [Example 9, 2-((3,5-Difluoro-3′-(methoxy-d3)-[1,1′-biphenyl]-4-yl)carbamoyl)cyclopent-1-ene-1-carboxylic Acid]?
Answer: antiviral effect on SARS-CoV-2 in combination with nucleoside analogue EIDD-1931 [5]: synergistic antiviral effects; EC50 [6]: 10 to 25 µM
